Key:
[1] = test system: MITOL and Tom20 mRNA in C2C12 cells; assay: qRT-PCR analysis of C2C12 cells; assay type: cell-based, mouse; settings: C2C12, 5 μM or 10 μM
Description: Murine myoblast C2C12 cells were used for various cellular experiments in this study. Two different sources of C2C12 cells were used depending on the experiment: C2C12 cells obtained from RIKEN BRC (RCB0987) were used for gene expression, mtDNA quantification, and mitochondrial morphology analysis; C2C12 cells from ATCC (CRL-1772) were used for OCR analysis. Cells were cultured in Dulbecco’s Modified Eagle Medium (DMEM; Sigma-Aldrich or Nacalai Tesque), supplemented with 10% FBS and 1% penicillin–streptomycin. Cells were maintained in a humidified incubator at 37°C with 5% CO2.
For cellular experiments, berberine or quinoid-type berberrubine (Q-BRB) was dissolved in DMSO, and berberrubine acetic acid adduct (AcA-BRB) was dissolved in distilled H2O. Each compound was diluted in culture medium to the indicated final concentrations.
Total RNA was extracted from C2C12 cells using an RNA extraction kit (RNeasy Mini Kit, Qiagen). After washing with PBS, cells were collected by trypsinization and centrifugation at 500 × g for 5 min, and the pellet was lysed according to the manufacturer’s instructions. The extracted RNA was reverse-transcribed into cDNA using a reverse transcription kit (ReverTra Ace, TOYOBO). Quantitative real-time PCR was performed using a qPCR master mix (KAPA SYBR FAST qPCR Master Mix (2X) Kit, KAPABIOSYSTEMS) and a thermal cycler (StepOnePlus, Applied Biosystems). Gene expression levels were normalized to GAPDH. Primer sets used for qRT-PCR are listed in Supplementary Table 1.

C2C12 cells = assay: Mitochondrial ROS (4-HNE in isolated mitochondrial fractions); assay type: cell-based, mouse; settings: C2C12, Q-BRB or AcA-BRB 5 or 10 μM, 24 h
Description: Proteins in sample buffer were separated by SDS-PAGE and transferred to Immobilon-P PVDF membranes (IPVH00010, Millipore). Blots were probed with the indicated antibodies, and protein bands on the blot were visualized using Chemi-Lumi One L (07880-70, Nacalai Tesque) or Immobilon Western Chemiluminescent HRP Substrate (WBKLS0500, Millipore). Band images were captured using a LuminoGraph I imager (WSE-6100, ATTO). Relative band intensities were quantified using Fiji/ImageJ software. Unprocessed western blot images corresponding to the data presented in the main and supplementary figures are provided in Supplementary Figures 11–16. Mitochondria were isolated using differential centrifugation. Cells were washed twice with ice-cold PBS, harvested by scraping, and collected by centrifugation at 500 × g for 5 min at 4 °C. The resulting cell pellets were resuspended in ice-cold mitochondrial isolation buffer (250 mM sucrose, 10 mM HEPES-KOH pH 7.4, 1 mM EDTA, and protease inhibitor cocktail) and incubated on ice for 10 min. Cells were mechanically disrupted on ice using a 27 G needle. The homogenates were centrifuged at 800 × g for 10 min at 4 °C to remove nuclei and cellular debris. The supernatants were transferred to new tubes and centrifuged at 8000 × g for 10 min at 4 °C to obtain the mitochondrial fraction. […] Protein concentration was measured using the BCA Protein Assay Kit (Takara Bio).

[2] = test system: mitochondria isolated from hearts of aged mice; assay: Oxygen consumption analysis of isolated cardiac mitochondria; assay type: in vivo, mouse; settings: AcA-BRB 0.5 mg/mL in drinking water
Description: Mouse heart tissue was homogenized in mitochondrial isolation buffer (210 mM mannitol, 70 mM sucrose, 5 mM HEPES-KOH, 1 mM EGTA, 0.5% fatty acid-free BSA, pH 7.2) using a glass-teflon homogenizer. Homogenates were centrifuged at 27,000 × g for 10 min at 4 °C, and the resulting pellets were resuspended in mitochondrial isolation buffer. Samples were centrifuged at 500 × g for 5 min at 4 °C, and the supernatants were collected and centrifuged at 10,000 × g for 5 min at 4 °C. The pellet was then resuspended in mitochondrial isolation buffer and centrifuged for 5 min at 10,000 × g at 4 °C. The resulting pellets were suspended in BSA-free mitochondrial isolation buffer, and mitochondrial protein concentration was determined using the Bio-Rad Protein Assay Dye Reagent (Bio-Rad Laboratories). Samples were then incubated with an equal volume of mitochondrial isolation buffer and subjected to oxygen consumption analysis.
Isolated mitochondria were diluted with mitochondrial assay solution (220 mM mannitol, 70 mM sucrose, 2 mM HEPES-KOH, 1 mM EGTA, 10 mM KH2PO4, 5 mM MgCl2, 0.2% fatty acid-free BSA, 2 mM malate, 10 mM pyruvate, pH 7.2) to 80 μg/mL. […] OCR was measured under basal conditions and after each injection using an XFe24 extracellular flux analyzer (Seahorse Bioscience).

86-week-old aged mice = assay: Survival analysis in aged mice on normal diet; assay type: in vivo, mouse; settings: 0.5 mg/mL in drinking water, from 86 weeks of age
Description: All experimental procedures were approved by the Ethics Review Committee for Animal Experimentation at Kumamoto University, Kumamoto, Japan (approval No. A 2024-083). Procedures followed the guidelines and recommendations outlined by the ILAR Guide for the Care and Use of Laboratory Animals (8th Edition, 2011). Prior to tissue collection, mice were euthanized under isoflurane anesthesia, followed by cervical dislocation to ensure rapid euthanasia, a procedure also employed during sacrifice for tissue harvesting. Euthanasia was performed when animals met the established criteria for humane endpoints, specifically a body weight loss exceeding 20% over a 3-day period or 25% over a 1-week period, in accordance with the Kumamoto University Ethics Review Committee for Animal Experimentation above. All animals fed a normal diet (CE-2, CLEA) were randomly assigned to two groups: tap water only and tap water supplemented with AcA-BRB (0.5 mg/mL). Mice were housed in an animal facility with lighting cycles automatically controlled (12 h light/12 h dark), maintained at a stable temperature of 22 ± 2 °C and a relative humidity of 40–80%. C57BL/6NJcl wild-type (WT) male mice aged 2, 20, and 24 months were used in this study.

[3] = set-up: method as in PMID 24593257; settings: cited from earlier work

Row | SMILES | mRNA levels of MITOL and Tom20 [1] | mitochondrial ROS (4-HNE levels in isolated mitochondrial fractions) (C2C12 cells) | ROS production (4-HNE in isolated cardiac mitochondria) [2] | OCR of mitochondria isolated from hearts ([2]; vs controls) | survival rate (86-week-old aged mice) | lipophilicity [3]
1 | COc1ccc2cc3[n+](cc2c1O)CCc1cc2c(cc1-3)OCO2 [AcA-BRB, berberrubine acetic acid adduct] | increased | – | – | – | – | –
2 | COc1ccc2cc3[n+](cc2c1O)CCc1cc2c(cc1-3)OCO2 [berberrubine] | – | modest increase | mild rise | improved | did not significantly affect | –
3 | COc1ccc2cc3n(cc-2c1=O)CCc1cc2c(cc1-3)OCO2 [Q-BRB, quinoid-type berberrubine] | increased | – | – | – | – | very high
